Laboratory results taken from article PMC6422671 (British Journal of Clinical Pharmacology, 2019).

Test: Clinical laboratory findings: chemistry; data mean (standard deviation)
Format: in vivo, healthy men
Excerpt: Data are mean (standard deviation).

What does the source list for `C[C@@H](N)c1cc(Cl)ccc1Cn1c(=S)[nH]c(=O)c2[nH]ccc21` [AZD4831]?
ALP (45 mg fed, 24 h): 0.993 (0.202) µkat L^–1; ALT (45 mg fed, 24 h): 0.324 (0.125) µkat L^–1; AST (45 mg fed, 24 h): 0.281 (0.048) µkat L^–1; Albumin (45 mg fed, 24 h): 41.2 (3.8) g L^–1; Bilirubin (45 mg fed, 24 h): 9.7 (0.6) µmol L^–1; CRP (45 mg fed, 24 h): 0.42 (0.20) mg L^–1; Calcium (45 mg fed, 24 h): 2.30 (0.10) mmol L^–1; Creatinine (45 mg fed, 24 h): 71.2 (11.4) µmol L^–1; GGT (45 mg fed, 24 h): 0.310 (0.053) µkat L^–1; Glucose (45 mg fed, 24 h): 5.06 (0.38) mmol L^–1; Phosphate (45 mg fed, 24 h): 1.10 (0.08) mmol L^–1; Potassium (45 mg fed, 24 h): 4.28 (0.26) mmol L^–1; Sodium (45 mg fed, 24 h): 139.6 (1.6) mmol L^–1; Urea (45 mg fed, 24 h): 4.04 (0.45) mmol L^–1; ALP (45 mg fed, 48 h): 1.004 (0.205) µkat L^–1; ALT (45 mg fed, 48 h): 0.325 (0.119) µkat L^–1; AST (45 mg fed, 48 h): 0.296 (0.053) µkat L^–1; Albumin (45 mg fed, 48 h): 42.1 (3.4) g L^–1; Bilirubin (45 mg fed, 48 h): 9.5 (1.3) µmol L^–1; CRP (45 mg fed, 48 h): 0.42 (0.22) mg L^–1; Calcium (45 mg fed, 48 h): 2.33 (0.07) mmol L^–1; Creatinine (45 mg fed, 48 h): 70.9 (9.3) µmol L^–1; GGT (45 mg fed, 48 h): 0.303 (0.051) µkat L^–1; Glucose (45 mg fed, 48 h): 5.27 (0.13) mmol L^–1; Phosphate (45 mg fed, 48 h): 1.09 (0.05) mmol L^–1; Potassium (45 mg fed, 48 h): 4.27 (0.05) mmol L^–1; Sodium (45 mg fed, 48 h): 140.1 (1.4) mmol L^–1; Urea (45 mg fed, 48 h): 4.19 (0.41) mmol L^–1; ALP (45 mg fed, follow up): 1.103 (0.265) µkat L^–1; ALT (45 mg fed, follow up): 0.364 (0.151) µkat L^–1; AST (45 mg fed, follow up): 0.358 (0.049) µkat L^–1; Albumin (45 mg fed, follow up): 44.1 (3.2) g L^–1; Bilirubin (45 mg fed, follow up): 9.6 (2.3) µmol L^–1; CRP (45 mg fed, follow up): 2.35 (3.10) mg L^–1; Calcium (45 mg fed, follow up): 2.34 (0.08) mmol L^–1; Creatinine (45 mg fed, follow up): 74.6 (5.0) µmol L^–1; GFR (45 mg fed, follow up): 109 (15) mL min^–1 1.73m^–2; GGT (45 mg fed, follow up): 0.316 (0.087) µkat L^–1; Glucose (45 mg fed, follow up): 5.18 (0.25) mmol L^–1; Phosphate (45 mg fed, follow up): 1.08 (0.11) mmol L^–1; Potassium (45 mg fed, follow up): 4.34 (0.20) mmol L^–1; Sodium (45 mg fed, follow up): 139.6 (0.6) mmol L^–1; Urea (45 mg fed, follow up): 4.18 (0.78) mmol L^–1; ALP (135 mg fasted, 24 h): 1.128 (0.226) µkat L^–1; ALT (135 mg fasted, 24 h): 0.323 (0.137) µkat L^–1; AST (135 mg fasted, 24 h): 0.304 (0.076) µkat L^–1; Albumin (135 mg fasted, 24 h): 43.4 (2.4) g L^–1; Bilirubin (135 mg fasted, 24 h): 12.2 (4.3) µmol L^–1; CRP (135 mg fasted, 24 h): 0.60 (0.30) mg L^–1; Calcium (135 mg fasted, 24 h): 2.36 (0.08) mmol L^–1; Creatinine (135 mg fasted, 24 h): 83.6 (8.7) µmol L^–1; GGT (135 mg fasted, 24 h): 0.318 (0.171) µkat L^–1; Glucose (135 mg fasted, 24 h): 4.74 (0.58) mmol L^–1; Phosphate (135 mg fasted, 24 h): 1.06 (0.23) mmol L^–1; Potassium (135 mg fasted, 24 h): 4.11 (0.11) mmol L^–1; Sodium (135 mg fasted, 24 h): 139.8 (0.7) mmol L^–1; Urea (135 mg fasted, 24 h): 4.50 (0.56) mmol L^–1; ALP (135 mg fasted, 48 h): 1.175 (0.250) µkat L^–1; ALT (135 mg fasted, 48 h): 0.325 (0.191) µkat L^–1; AST (135 mg fasted, 48 h): 0.308 (0.101) µkat L^–1; Albumin (135 mg fasted, 48 h): 43.9 (2.8) g L^–1; Bilirubin (135 mg fasted, 48 h): 11.6 (3.5) µmol L^–1; CRP (135 mg fasted, 48 h): 0.50 (0.26) mg L^–1; Calcium (135 mg fasted, 48 h): 2.37 (0.07) mmol L^–1; Creatinine (135 mg fasted, 48 h): 81.0 (9.1) µmol L^–1; GGT (135 mg fasted, 48 h): 0.325 (0.161) µkat L^–1; Glucose (135 mg fasted, 48 h): 4.75 (0.37) mmol L^–1; Phosphate (135 mg fasted, 48 h): 1.01 (0.19) mmol L^–1; Potassium (135 mg fasted, 48 h): 4.06 (0.17) mmol L^–1; Sodium (135 mg fasted, 48 h): 140.3 (1.4) mmol L^–1; Urea (135 mg fasted, 48 h): 4.24 (0.74) mmol L^–1; ALP (135 mg fasted, follow up): 1.239 (0.208) µkat L^–1; ALT (135 mg fasted, follow up): 0.299 (0.129) µkat L^–1; AST (135 mg fasted, follow up): 0.332 (0.064) µkat L^–1; Albumin (135 mg fasted, follow up): 46.0 (2.6) g L^–1; Bilirubin (135 mg fasted, follow up): 13.1 (5.1) µmol L^–1; CRP (135 mg fasted, follow up): 8.94 (12.69) mg L^–1; Calcium (135 mg fasted, follow up): 2.36 (0.11) mmol L^–1; Creatinine (135 mg fasted, follow up): 85.1 (12.7) µmol L^–1; GFR (135 mg fasted, follow up): 104 (22) mL min^–1 1.73m^–2; GGT (135 mg fasted, follow up): 0.306 (0.143) µkat L^–1; Glucose (135 mg fasted, follow up): 4.71 (0.54) mmol L^–1; Phosphate (135 mg fasted, follow up): 1.00 (0.21) mmol L^–1; Potassium (135 mg fasted, follow up): 4.07 (0.20) mmol L^–1; Sodium (135 mg fasted, follow up): 140.2 (2.1) mmol L^–1; Urea (135 mg fasted, follow up): 4.15 (1.35) mmol L^–1; ALP (405 mg fasted, 24 h): 0.958 (0.139) µkat L^–1; ALT (405 mg fasted, 24 h): 0.338 (0.119) µkat L^–1; AST (405 mg fasted, 24 h): 0.363 (0.077) µkat L^–1; Albumin (405 mg fasted, 24 h): 43.7 (2.3) g L^–1; Bilirubin (405 mg fasted, 24 h): 14.9 (2.3) µmol L^–1; CRP (405 mg fasted, 24 h): 1.17 (1.28) mg L^–1; Calcium (405 mg fasted, 24 h): 2.39 (0.06) mmol L^–1; Creatinine (405 mg fasted, 24 h): 86.2 (14.7) µmol L^–1; GGT (405 mg fasted, 24 h): 0.298 (0.146) µkat L^–1; Glucose (405 mg fasted, 24 h): 4.77 (0.30) mmol L^–1; Phosphate (405 mg fasted, 24 h): 1.07 (0.11) mmol L^–1; Potassium (405 mg fasted, 24 h): 4.42 (0.31) mmol L^–1; Sodium (405 mg fasted, 24 h): 139.2 (1.0) mmol L^–1; Urea (405 mg fasted, 24 h): 4.55 (1.01) mmol L^–1; ALP (405 mg fasted, 48 h): 0.947 (0.186) µkat L^–1; ALT (405 mg fasted, 48 h): 0.351 (0.097) µkat L^–1; AST (405 mg fasted, 48 h): 0.366 (0.075) µkat L^–1; Albumin (405 mg fasted, 48 h): 44.2 (2.7) g L^–1; Bilirubin (405 mg fasted, 48 h): 13.4 (2.1) µmol L^–1; CRP (405 mg fasted, 48 h): 1.19 (1.17) mg L^–1; Calcium (405 mg fasted, 48 h): 2.40 (0.06) mmol L^–1; Creatinine (405 mg fasted, 48 h): 81.1 (13.0) µmol L^–1; GGT (405 mg fasted, 48 h): 0.290 (0.133) µkat L^–1; Glucose (405 mg fasted, 48 h): 4.88 (0.35) mmol L^–1; Phosphate (405 mg fasted, 48 h): 1.06 (0.15) mmol L^–1; Potassium (405 mg fasted, 48 h): 4.33 (0.33) mmol L^–1; Sodium (405 mg fasted, 48 h): 139.6 (1.0) mmol L^–1; Urea (405 mg fasted, 48 h): 4.68 (1.07) mmol L^–1; ALP (405 mg fasted, follow up): 1.037 (0.190) µkat L^–1; ALT (405 mg fasted, follow up): 0.346 (0.071) µkat L^–1; AST (405 mg fasted, follow up): 0.398 (0.062) µkat L^–1; Albumin (405 mg fasted, follow up): 46.6 (2.7) g L^–1; Bilirubin (405 mg fasted, follow up): 13.2 (3.1) µmol L^–1; CRP (405 mg fasted, follow up): 1.17 (0.86) mg L^–1; Calcium (405 mg fasted, follow up): 2.43 (0.10) mmol L^–1; Creatinine (405 mg fasted, follow up): 81.1 (12.2) µmol L^–1; GFR (405 mg fasted, follow up): 104 (12) mL min^–1 1.73m^–2; GGT (405 mg fasted, follow up): 0.298 (0.137) µkat L^–1; Glucose (405 mg fasted, follow up): 4.63 (0.39) mmol L^–1; Phosphate (405 mg fasted, follow up): 1.12 (0.17) mmol L^–1; Potassium (405 mg fasted, follow up): 4.39 (0.18) mmol L^–1; Sodium (405 mg fasted, follow up): 141.5 (2.6) mmol L^–1; Urea (405 mg fasted, follow up): 3.87 (0.96) mmol L^–1; changes in clinical chemistry, haematology or urinary parameters (except serum uric acid at 135 mg or 405 mg): no systemic or dose‐related changes
